Experiments:
[1] = target: T1, Multidrug resistance-associated protein 1 (Homo sapiens, UniProt P33527); assay: Inhibitory activity against MRP1 in HeLa-T5 cells; assay type: functional, cell-based
[2] = target: T1, Multidrug resistance-associated protein 1; assay: Inhibitory activity against MRP1-mediated LTC4 uptake into membrane vesicles from HeLa-T5 cells expressing MRP1; assay type: functional, cell-based

T1 sequence (P33527 whole entry): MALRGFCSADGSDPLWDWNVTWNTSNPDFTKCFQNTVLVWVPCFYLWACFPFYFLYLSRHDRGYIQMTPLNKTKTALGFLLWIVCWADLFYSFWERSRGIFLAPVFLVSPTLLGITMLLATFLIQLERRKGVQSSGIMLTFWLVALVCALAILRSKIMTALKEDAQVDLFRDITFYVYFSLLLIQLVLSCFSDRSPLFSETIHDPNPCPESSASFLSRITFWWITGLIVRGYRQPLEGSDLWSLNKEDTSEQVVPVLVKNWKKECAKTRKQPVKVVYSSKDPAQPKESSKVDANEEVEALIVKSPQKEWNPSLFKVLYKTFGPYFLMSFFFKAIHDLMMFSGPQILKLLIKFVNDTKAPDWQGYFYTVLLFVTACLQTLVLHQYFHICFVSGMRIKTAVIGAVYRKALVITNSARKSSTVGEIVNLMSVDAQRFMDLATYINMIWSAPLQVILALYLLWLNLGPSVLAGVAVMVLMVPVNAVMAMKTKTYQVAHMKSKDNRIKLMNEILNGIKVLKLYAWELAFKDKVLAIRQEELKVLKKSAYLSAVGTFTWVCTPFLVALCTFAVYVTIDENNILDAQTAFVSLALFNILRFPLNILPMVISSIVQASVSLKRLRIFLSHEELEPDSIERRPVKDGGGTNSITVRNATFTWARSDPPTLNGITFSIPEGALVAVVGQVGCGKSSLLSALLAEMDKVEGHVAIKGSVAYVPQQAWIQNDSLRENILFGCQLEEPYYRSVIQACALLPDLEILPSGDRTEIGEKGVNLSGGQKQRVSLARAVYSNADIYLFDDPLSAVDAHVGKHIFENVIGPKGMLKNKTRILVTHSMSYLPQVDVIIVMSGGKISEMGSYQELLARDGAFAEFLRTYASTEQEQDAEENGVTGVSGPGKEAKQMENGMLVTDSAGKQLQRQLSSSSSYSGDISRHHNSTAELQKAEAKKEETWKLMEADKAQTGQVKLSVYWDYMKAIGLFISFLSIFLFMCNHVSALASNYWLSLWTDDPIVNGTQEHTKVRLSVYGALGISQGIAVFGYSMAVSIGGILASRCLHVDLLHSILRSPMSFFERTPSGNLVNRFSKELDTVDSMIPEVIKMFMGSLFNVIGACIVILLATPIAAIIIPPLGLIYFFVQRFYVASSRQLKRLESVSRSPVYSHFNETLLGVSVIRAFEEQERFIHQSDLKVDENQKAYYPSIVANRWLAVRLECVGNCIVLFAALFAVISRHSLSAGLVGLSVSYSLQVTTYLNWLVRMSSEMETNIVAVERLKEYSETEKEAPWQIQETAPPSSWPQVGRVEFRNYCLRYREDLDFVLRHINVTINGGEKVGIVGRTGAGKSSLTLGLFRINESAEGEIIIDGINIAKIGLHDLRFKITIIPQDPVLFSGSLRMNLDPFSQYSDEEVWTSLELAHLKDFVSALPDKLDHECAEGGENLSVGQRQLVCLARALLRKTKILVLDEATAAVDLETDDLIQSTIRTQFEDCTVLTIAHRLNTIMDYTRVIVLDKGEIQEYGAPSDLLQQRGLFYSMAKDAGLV

| EC50 [1] | IC50 [2] | Compound |
| --- | --- | --- |
| 0.25 µM | 0.27 µM | COc1cc(C(=O)NC[C@@H]2CCC[C@H](n3c(=O)c4c(C)onc4c4c(Cl)cccc43)C2)cc(OC)c1OC (racemic) |
| 0.64 µM | 1.01 µM | Cc1onc2c1c(=O)n([C@H]1CCC[C@H](CNC(=O)c3ccccc3)C1)c1cccc(Cl)c21 (racemic) |
| 0.18 µM | 0.038 µM | Cc1onc2c1c(=O)n([C@H]1CCC[C@@H](CNC(=O)c3ccccc3)C1)c1cccc(Cl)c21 (racemic) |
| 0.42 µM |  | COc1cc(C(=O)NC[C@H]2CCC[C@H](n3c(=O)c4c(C)onc4c4c(Cl)cccc43)C2)cc(OC)c1OC (racemic) |
